ChEMBL document CHEMBL1201862, “PubChem BioAssay data set” (2004)
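Five compound concentrations were applied to cells in 96-well plates for 48 hours; endpoints were derived by simple linear interpolation of the resulting dose-response curve. At the GI50, growth is halved.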 The source made the active and inactive calls. Rule as the data show it: active = GI50 up to about 1.1 µM and inactive = higher.

Experiments:
Assay in all cases: NCI anticancer screen, dose series, 48 h
[1] = tested on: RXF 631
[2] = tested on: SNB-78
[3] = tested on: DLD-1
[4] = tested on: DMS-273
[5] = tested on: HOP-18
[6] = tested on: DMS-114

Structure (SMILES) | GI50 [1] | GI50 [2] | GI50 [3] | GI50 [4] | GI50 [5] | GI50 [6]
O=C1C(=O)N(c2ccc(Cl)cc2Cl)C(=O)C(=O)C1c1nc2ccccc2o1 | > 100 µM (inactive) | > 100 µM (inactive) | > 100 µM (inactive) | > 100 µM (inactive) | > 100 µM (inactive) | 
CSc1ccc(-c2cn3ccsc3n2)c(O)c1 | > 70.8 µM (inactive) | 42.3 µM (inactive) | 40.4 µM (inactive) | 32.8 µM (inactive) | > 76.6 µM (inactive) | 26.1 µM (inactive)
CCC(O)CCCCCCCCCCCCCCC(=O)O (stereo not given) | 78.3 µM (inactive) | > 100 µM (inactive) | > 100 µM (inactive) | > 100 µM (inactive) | > 100 µM (inactive) | > 100 µM (inactive)
Cc1ccc(NC(=O)CC/C(CC(=O)C(C)(C)C)=N/Nc2nnc(C)n2N)cc1C | > 100 µM (inactive) | > 100 µM (inactive) |  | 95.1 µM (inactive) | > 100 µM (inactive) | 62.2 µM (inactive)
O=C1c2ccccc2C(=O)N1CCCOCc1cnc(O)nc1O | > 100 µM (inactive) |  | > 100 µM (inactive) | > 100 µM (inactive) | > 100 µM (inactive) | > 100 µM (inactive)
CCOC(=O)c1cnc2c(ccc3ncccc32)c1OCC | 84.5 µM (inactive) | > 100 µM (inactive) | 77.3 µM (inactive) | > 100 µM (inactive) | > 100 µM (inactive) | > 100 µM (inactive)
CN(C)CCN1N=Nc2cccc3cccc1c23 | > 100 µM (inactive) |  | > 80.7 µM (inactive) | 24.5 µM (inactive) | > 100 µM (inactive) | > 74.8 µM (inactive)
COC(=O)c1cc(-c2ccc(OC)c(OC)c2)oc1-c1ccc(OC)c(OC)c1 | 30.5 µM (inactive) | 31.7 µM (inactive) | 30.1 µM (inactive) | 67.1 µM (inactive) | 29.2 µM (inactive) | 31.9 µM (inactive)
COc1ccc([C@@H]2C[C@@H]3C(=O)OC(=O)[C@@H]3c3c2c2ccccc2n3C)cc1 | > 100 µM (inactive) |  | > 100 µM (inactive) | > 100 µM (inactive) |  | > 100 µM (inactive)
CCCCCCCCCCCCCC/C(C(=O)OC)=C(/O)C(=O)OCC | 33 µM (inactive) | 64.1 µM (inactive) | 30.5 µM (inactive) | 94 µM (inactive) | 27.6 µM (inactive) | > 100 µM (inactive)
CC(C)c1cccc(=O)c(O)c1 [HINOKITIOL] | 30.5 µM (inactive) | 48.3 µM (inactive) | 5.31 µM (inactive) | 3.83 µM (inactive) | 15.3 µM (inactive) | 3.72 µM (inactive)
CC(C)(C)C1CCC2c3c([nH]c4ncccc34)C3C(=O)N(c4ccccc4)C(=O)C3C2C1 (stereo not given) |  | 40.4 µM (inactive) | > 100 µM (inactive) | > 100 µM (inactive) | > 100 µM (inactive) | 80 µM (inactive)
Cc1cccc(C)c1NC(=O)C(=O)C(C(=O)c1ccccc1-c1ccccc1)C1OC(=O)c2ccccc21 (stereo not given) | 31.8 µM (inactive) | 24.8 µM (inactive) | 17.5 µM (inactive) |  |  | 13.7 µM (inactive)
Cc1cccc(NC2=NC(=O)C(CC(=O)Nc3ccc(Cl)cc3C)S2)c1 (stereo not given) | > 100 µM (inactive) |  | > 100 µM (inactive) | > 100 µM (inactive) | > 100 µM (inactive) | > 100 µM (inactive)
O=C1C2=C(CC3C(C2)C3(Br)Br)C(=O)C2=C1CC1C(C2)C1(Br)Br (stereo not given) | > 100 µM (inactive) | > 100 µM (inactive) | > 100 µM (inactive) | > 100 µM (inactive) | > 100 µM (inactive) | 
CC(C)(C)NC(=O)C12C3C4C1C1C2C3C41I (stereo not given) | > 100 µM (inactive) | > 100 µM (inactive) |  | > 100 µM (inactive) |  | > 100 µM (inactive)
CC1=C(c2cc(C(=O)Nc3ccc(Cl)cc3)nc(S)n2)Sc2ccccc2N1 | > 100 µM (inactive) | > 100 µM (inactive) | > 100 µM (inactive) | > 100 µM (inactive) | > 100 µM (inactive) | > 100 µM (inactive)
CC(N)C(C)c1ccccc1 (stereo not given) |  | > 100 µM (inactive) | > 100 µM (inactive) | > 100 µM (inactive) | > 100 µM (inactive) | > 100 µM (inactive)
O=C(NCCCN1CCN(CCCNC(=O)Nc2cc(Cl)ccc2Cl)CC1)Nc1cc(Cl)ccc1Cl |  | 90.6 µM (inactive) | > 100 µM (inactive) | 22.3 µM (inactive) | > 100 µM (inactive) | 38.5 µM (inactive)
CC1=NN(c2ccccc2)C(=O)C1/N=N/c1ccc(Br)c(C)c1 (stereo not given) | > 100 µM (inactive) | > 100 µM (inactive) | > 100 µM (inactive) | > 100 µM (inactive) | 0.0562 µM (active) | > 100 µM (inactive)
O=c1c(Br)cc2nc3ccccc3sc-2c1Br | > 100 µM (inactive) | > 100 µM (inactive) | > 100 µM (inactive) | > 100 µM (inactive) |  | 17.9 µM (inactive)
